Reference: patent US12427187B2, “Glucose-responsive insulin conjugates” (priority 2019, dated 2025)
Like-named read-outs stand apart in the source and are kept apart here.

Molecular target: T1, Human macrophage mannose receptor 1 (MRC1) (Homo sapiens, UniProt P22897)
T1 sequence (P22897 19-1456): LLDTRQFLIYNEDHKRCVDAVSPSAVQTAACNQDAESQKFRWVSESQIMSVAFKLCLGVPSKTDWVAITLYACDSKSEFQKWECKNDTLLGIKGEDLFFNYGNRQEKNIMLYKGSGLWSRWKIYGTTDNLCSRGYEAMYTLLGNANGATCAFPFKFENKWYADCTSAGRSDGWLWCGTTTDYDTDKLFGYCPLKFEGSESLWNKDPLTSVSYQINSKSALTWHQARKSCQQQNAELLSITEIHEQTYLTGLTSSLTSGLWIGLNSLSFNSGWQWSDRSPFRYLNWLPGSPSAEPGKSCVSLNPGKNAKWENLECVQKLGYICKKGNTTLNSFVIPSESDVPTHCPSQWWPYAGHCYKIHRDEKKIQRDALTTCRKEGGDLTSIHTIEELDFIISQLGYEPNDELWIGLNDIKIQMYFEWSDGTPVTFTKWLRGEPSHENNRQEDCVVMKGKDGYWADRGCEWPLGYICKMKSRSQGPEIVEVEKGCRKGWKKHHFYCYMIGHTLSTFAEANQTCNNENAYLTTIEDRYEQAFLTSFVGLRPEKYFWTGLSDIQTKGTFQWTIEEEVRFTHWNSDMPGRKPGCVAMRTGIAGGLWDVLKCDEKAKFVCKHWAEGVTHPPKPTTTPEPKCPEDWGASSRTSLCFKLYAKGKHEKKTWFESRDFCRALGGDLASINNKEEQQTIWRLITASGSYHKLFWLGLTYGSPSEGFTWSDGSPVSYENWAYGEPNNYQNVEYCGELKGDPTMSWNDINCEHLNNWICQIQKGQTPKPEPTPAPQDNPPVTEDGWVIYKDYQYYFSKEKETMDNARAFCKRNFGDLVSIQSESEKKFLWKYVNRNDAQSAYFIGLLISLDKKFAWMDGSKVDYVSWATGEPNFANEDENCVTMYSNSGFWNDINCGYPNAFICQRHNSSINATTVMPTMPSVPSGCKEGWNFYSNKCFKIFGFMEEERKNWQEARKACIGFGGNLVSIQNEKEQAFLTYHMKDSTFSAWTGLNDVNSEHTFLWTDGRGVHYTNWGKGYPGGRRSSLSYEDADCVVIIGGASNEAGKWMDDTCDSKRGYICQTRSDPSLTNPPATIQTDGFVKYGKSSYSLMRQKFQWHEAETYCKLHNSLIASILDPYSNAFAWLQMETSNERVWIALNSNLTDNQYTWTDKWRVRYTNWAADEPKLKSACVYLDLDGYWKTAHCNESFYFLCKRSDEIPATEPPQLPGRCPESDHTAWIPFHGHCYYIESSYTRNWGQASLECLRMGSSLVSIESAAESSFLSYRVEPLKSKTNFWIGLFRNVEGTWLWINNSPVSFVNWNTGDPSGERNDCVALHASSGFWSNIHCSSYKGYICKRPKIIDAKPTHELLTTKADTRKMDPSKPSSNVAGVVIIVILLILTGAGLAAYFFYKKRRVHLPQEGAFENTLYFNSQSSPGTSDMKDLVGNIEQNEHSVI
Test: MRC1 competition binding assay with Eu-mannosylated-BSA
Conditions: IP = inflection point, read-out: MRC1 Binding IP

Row | SMILES | IC50 (Method E: 96-well plate) | IC50 (Method F: 384-well plate)
1 | CC(=O)[C@H](CCCCN)NC(=O)CCCCC(=O)NCC(=O)N[C@@H](CCC(=O)N[C@@H](CCC(=O)NCCCCCC(=O)NCCO[C@H]1O[C@H](CO[C@H]2O[C@H](CO)[C@@H](O)[C@H](O)[C@@H]2O)[C@@H](O)[C@H](O[C@H]2O[C@H](CO)[C@@H](O)[C@H](O)[C@@H]2O)[C@@H]1O)C(=O)NCCCCCC(=O)NCCOC1O[C@H](CO[C@H]2O[C@H](CO)[C@@H](O)[C@H](O)[C@@H]2O)[C@@H](O)[C@H](O[C@H]2O[C@H](CO)[C@@H](O)[C@H](O)[C@@H]2O)[C@@H]1O)C(=O)NCCCCCC(=O)NCCO[C@H]1O[C@H](CO[C@H]2O[C@H](CO)[C@@H](O)[C@H](O)[C@@H]2O)[C@@H](O)[C@H](O[C@H]2O[C@H](CO)[C@@H](O)[C@H](O)[C@@H]2O)[C@@H]1O (stereo partly shown) [IOC-5] | 9.12 nM | 
2 | CC(=O)[C@H](CCCCN)NC(=O)CCCCC(=O)N[C@@H](CCC(=O)N[C@@H](CCC(=O)N[C@@H](CCC(=O)NCCCCCC(=O)NCCO[C@H]1O[C@H](CO[C@H]2O[C@H](CO)[C@@H](O)[C@H](O)[C@@H]2O)[C@@H](O)[C@H](O[C@H]2O[C@H](CO)[C@@H](O)[C@H](O)[C@@H]2O)[C@@H]1O)C(=O)NCCCCCC(=O)NCCO[C@H]1O[C@H](CO[C@H]2O[C@H](CO)[C@@H](O)[C@H](O)[C@@H]2O)[C@@H](O)[C@H](O[C@H]2O[C@H](CO)[C@@H](O)[C@H](O)[C@@H]2O)[C@@H]1O)C(=O)NCCCCCC(=O)NCCO[C@H]1O[C@H](CO[C@H]2O[C@H](CO)[C@@H](O)[C@H](O)[C@@H]2O)[C@@H](O)[C@H](O[C@H]2O[C@H](CO)[C@@H](O)[C@H](O)[C@@H]2O)[C@@H]1O)C(=O)NCCCCCC(=O)NCCO[C@H]1O[C@H](CO[C@H]2O[C@H](CO)[C@@H](O)[C@H](O)[C@@H]2O)[C@@H](O)[C@H](O[C@H]2O[C@H](CO)[C@@H](O)[C@H](O)[C@@H]2O)[C@@H]1O [IOC-24] | 3.32 nM | 
3 | CC(=O)[C@H](CCCCN)NC(=O)CCCCC(=O)NCC(=O)N[C@@H](CCC(=O)N[C@@H](CCC(=O)NCCCCCC(=O)N(CCOC1O[C@H](CO)[C@@H](O)[C@H](O)[C@@H]1O)CCO[C@H]1O[C@H](CO)[C@@H](O)[C@H](O)[C@@H]1O)C(=O)NCCCCCC(=O)N(CCOC1O[C@H](CO)[C@@H](O)[C@H](O)[C@@H]1O)CCOC1O[C@H](CO)[C@@H](O)[C@H](O)[C@@H]1O)C(=O)NCCCCCC(=O)NCCO[C@H]1O[C@H](CO[C@H]2O[C@H](CO)[C@@H](O)[C@H](O)[C@@H]2O)[C@@H](O)[C@H](O[C@H]2O[C@H](CO)[C@@H](O)[C@H](O)[C@@H]2O)[C@@H]1O (stereo partly shown) [IOC-27] |  | 20.7 nM
4 | CC(=O)[C@H](CCCCN)NC(=O)CCCCC(=O)N[C@@H](CCC(=O)NCCO[C@H]1O[C@H](CO)[C@@H](O)[C@H](O)[C@@H]1O)C(=O)N[C@@H](CCC(=O)NCCO[C@H]1O[C@H](CO)[C@@H](O)[C@H](O)[C@@H]1O)C(=O)N[C@@H](CCC(=O)NCCO[C@H]1O[C@H](CO)[C@@H](O)[C@H](O)[C@@H]1O)C(=O)NCCO[C@H]1O[C@H](CO)[C@@H](O)[C@H](O)[C@@H]1O [IOC-16] | 86.7 nM | 

Next, values leading:

Row | IC50 (Method E: 96-well plate) | IC50 (Method F: 384-well plate) | SMILES
5 |  | 10.6 nM | CC(=O)[C@H](CCCCN)NC(=O)CCCCCNC(=O)[C@H](CCCCNC(=O)CN(CC(=O)NCCO[C@@H]1O[C@@H](C)[C@@H](O)[C@@H](O)[C@@H]1O)CC(=O)NCCO[C@@H]1O[C@@H](C)[C@@H](O)[C@@H](O)[C@@H]1O)NC(=O)[C@H](CCCCNC(=O)CN(CC(=O)NCCO[C@@H]1O[C@@H](C)[C@@H](O)[C@@H](O)[C@@H]1O)CC(=O)NCCO[C@@H]1O[C@@H](C)[C@@H](O)[C@@H](O)[C@@H]1O)NC(=O)CN(CC(=O)NCCO[C@@H]1O[C@@H](C)[C@@H](O)[C@@H](O)[C@@H]1O)CC(=O)NCCO[C@@H]1O[C@@H](C)[C@@H](O)[C@@H](O)[C@@H]1O [IOC-47]
6 |  | 58.3 nM | CC(=O)[C@H](CCCCN)NC(=O)CCCCCNC(=O)[C@H](CCCCNC(=O)[C@H](CCCCNC(=O)CCCCCNC(=O)CN(CC(=O)NCCO[C@H]1O[C@H](CO)[C@@H](O)[C@H](O)[C@@H]1O)CC(=O)NCCO[C@H]1O[C@H](CO)[C@@H](O)[C@H](O)[C@@H]1O)NC(=O)CN(CC(=O)NCCO[C@H]1O[C@H](CO)[C@@H](O)[C@H](O)[C@@H]1O)CC(=O)NCCO[C@H]1O[C@H](CO)[C@@H](O)[C@H](O)[C@@H]1O)NC(=O)CN(CC(=O)NCCO[C@@H]1O[C@@H](C)[C@@H](O)[C@@H](O)[C@@H]1O)CC(=O)NCCO[C@@H]1O[C@@H](C)[C@@H](O)[C@@H](O)[C@@H]1O [IOC-46]
7 |  | 8.25 nM | CC(=O)[C@H](CCCCN)NC(=O)CCCCCNC(=O)[C@H](CCCCNC(=O)CCOCCOCCNC(=O)CN(CC(=O)NCCO[C@@H]1O[C@@H](C)[C@@H](O)[C@@H](O)[C@@H]1O)CC(=O)NCCO[C@@H]1O[C@@H](C)[C@@H](O)[C@@H](O)[C@@H]1O)NC(=O)[C@H](CCCCNC(=O)CCOCCOCCNC(=O)CN(CC(=O)NCCO[C@@H]1O[C@@H](C)[C@@H](O)[C@@H](O)[C@@H]1O)CC(=O)NCCO[C@@H]1O[C@@H](C)[C@@H](O)[C@@H](O)[C@@H]1O)NC(=O)CCOCCOCCNC(=O)CN(CC(=O)NCCO[C@@H]1O[C@@H](C)[C@@H](O)[C@@H](O)[C@@H]1O)CC(=O)NCCO[C@@H]1O[C@@H](C)[C@@H](O)[C@@H](O)[C@@H]1O [IOC-43]
8 |  | 10 nM | CC(=O)[C@H](CCCCN)NC(=O)CCCCC(=O)NCC(=O)N[C@@H](CCC(=O)N[C@@H](CCC(=O)NCCCCCC(=O)N(CCOC1O[C@H](CO)[C@@H](O)[C@H](O)[C@@H]1O)CCO[C@H]1O[C@H](CO)[C@@H](O)[C@H](O)[C@@H]1O)C(=O)NCCCCCC(=O)N(CCOC1O[C@H](CO)[C@@H](O)[C@H](O)[C@@H]1O)CCOC1O[C@H](CO)[C@@H](O)[C@H](O)[C@@H]1O)C(=O)NCCCCCC(=O)NCCO[C@H]1O[C@H](CO[C@H]2O[C@H](CO)[C@@H](O)[C@H](O)[C@@H]2O)[C@@H](O)[C@H](O[C@H]2O[C@H](CO)[C@@H](O)[C@H](O)[C@@H]2O)[C@@H]1O (stereo partly shown) [IOC-33]
9 | 2.38 nM |  | CC(=O)[C@H](CCCCN)NC(=O)CCCCCNC(=O)[C@H](CCCCNC(=O)CCCCCNC(=O)CN(CC(=O)NCCO[C@H]1O[C@H](CO)[C@@H](O)[C@H](O)[C@@H]1O)CC(=O)NCCO[C@H]1O[C@H](CO[C@H]2O[C@H](CO)[C@@H](O)[C@H](O)[C@@H]2O)[C@@H](O)[C@H](O[C@H]2O[C@H](CO)[C@@H](O)[C@H](O)[C@@H]2O)[C@@H]1O)NC(=O)[C@H](CCCCNC(=O)CCCCCNC(=O)CN(CC(=O)NCCO[C@H]1O[C@H](CO)[C@@H](O)[C@H](O)[C@@H]1O)CC(=O)NCCO[C@H]1O[C@H](CO[C@H]2O[C@H](CO)[C@@H](O)[C@H](O)[C@@H]2O)[C@@H](O)[C@H](O[C@H]2O[C@H](CO)[C@@H](O)[C@H](O)[C@@H]2O)[C@@H]1O)NC(=O)CCCCCNC(=O)CN(CC(=O)NCCO[C@H]1O[C@H](CO)[C@@H](O)[C@H](O)[C@@H]1O)CC(=O)NCCO[C@H]1O[C@H](CO[C@H]2O[C@H](CO)[C@@H](O)[C@H](O)[C@@H]2O)[C@@H](O)[C@H](O[C@H]2O[C@H](CO)[C@@H](O)[C@H](O)[C@@H]2O)[C@@H]1O [IOC-39]
10 |  | 8.91 nM | CC(=O)[C@H](CCCCN)NC(=O)CCCCCNC(=O)[C@H](CCCCNC(=O)[C@H](CCCCNC(=O)CCCCCNC(=O)CN(CC(=O)NCCO[C@@H]1O[C@@H](C)[C@@H](O)[C@@H](O)[C@@H]1O)CC(=O)NCCO[C@@H]1O[C@@H](C)[C@@H](O)[C@@H](O)[C@@H]1O)NC(=O)CN(CC(=O)NCCO[C@@H]1O[C@@H](C)[C@@H](O)[C@@H](O)[C@@H]1O)CC(=O)NCCO[C@@H]1O[C@@H](C)[C@@H](O)[C@@H](O)[C@@H]1O)NC(=O)CN(CC(=O)NCCO[C@@H]1O[C@@H](C)[C@@H](O)[C@@H](O)[C@@H]1O)CC(=O)NCCO[C@@H]1O[C@@H](C)[C@@H](O)[C@@H](O)[C@@H]1O [IOC-45]
